According to ChEMBL document CHEMBL1201862, “PubChem BioAssay data set” (2004):
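Growth conditions: 96-well plates. Treatment: test compound, 48 hours, 5 concentrations. Analysis: linear interpolation between bracketing concentrations; unreached endpoints set to highest concentration. GI50 is the concentration that inhibits growth by half.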 Calls of active or inactive are those of the source. Rule as the data show it: active = GI50 up to about 1.1 µM and inactive = higher.

Tests used:
Test in all cases: NCI-60 cell line screen, 48 h
[1] = system: A549
[2] = system: COLO 205
[3] = system: DU-145
[4] = system: Hs-578T
[5] = system: IGROV-1
[6] = system: M14
[7] = system: MDA-MB-231
[8] = system: NCI-H522
[9] = system: SF-268
[10] = system: SF-539
[11] = system: SK-MEL-2
[12] = system: SNB-75
[13] = system: T47D
[14] = system: TK-10
[15] = system: U-251
[16] = system: UACC-257
[17] = system: SR

Measured: GI50

CC[C@@H]1C[C@@H](O)[C@@H]2[C@H](O)[C@H](O)CN2C1
inactive: [1] > 100 µM | [2] > 100 µM | [3] > 100 µM | [4] > 100 µM | [5] > 100 µM | [6] > 100 µM | [7] > 100 µM | [8] > 100 µM | [9] > 100 µM | [10] > 100 µM | [11] > 100 µM | [12] 22.3 µM | [13] > 100 µM | [14] > 100 µM | [15] > 100 µM | [16] > 100 µM

O=C(Nc1ccc(Cl)cc1Cl)c1cc2nc3ccccc3c(=O)n2c2ccccc12
inactive: [1] > 10 µM | [3] > 10 µM | [4] > 10 µM | [5] > 10 µM | [6] > 10 µM | [7] > 10 µM | [8] > 10 µM | [9] > 10 µM | [10] > 10 µM | [11] > 10 µM | [13] > 10 µM | [14] > 10 µM | [15] > 10 µM | [16] > 10 µM

O=C(CC(C(=O)c1cccs1)c1ccsc1)c1ccsc1 (centres undefined)
inactive: [1] 45.8 µM | [2] 18.2 µM | [3] 44.8 µM | [4] 20.3 µM | [5] 54.1 µM | [6] 16.9 µM | [7] 30 µM | [8] 20.4 µM | [9] 51.6 µM | [10] 27.5 µM | [12] 25.6 µM | [17] 32.6 µM | [13] 30.6 µM | [14] > 100 µM | [15] 46.3 µM | [16] 70.5 µM

CC(C)(C)OC(=O)Nc1nnc(S(N)(=O)=O)s1
inactive: [1] > 100 µM | [2] > 100 µM | [3] > 100 µM | [4] > 100 µM | [6] > 100 µM | [7] > 100 µM | [8] > 100 µM | [9] > 100 µM | [10] > 100 µM | [11] > 100 µM | [17] > 100 µM | [13] > 100 µM | [14] > 100 µM | [15] > 100 µM | [16] > 100 µM

COc1ccc(NC(=O)Oc2cc(C)c3ccc(=O)cc-3o2)c(OC)c1.COc1ccc(NC(=O)Oc2ccc3c(C)cc(=O)oc3c2)c(OC)c1
inactive: [1] > 100 µM | [2] > 100 µM | [3] > 100 µM | [4] > 100 µM | [5] > 100 µM | [6] > 100 µM | [7] > 100 µM | [8] > 100 µM | [9] > 100 µM | [10] > 100 µM | [11] > 100 µM | [13] > 100 µM | [14] > 100 µM | [15] > 100 µM

NC(=S)NS(=O)(=O)c1ccc(F)cc1F
inactive: [1] > 100 µM | [2] > 100 µM | [3] > 100 µM | [4] > 100 µM | [5] > 100 µM | [6] > 100 µM | [7] > 100 µM | [8] > 100 µM | [9] > 100 µM | [10] > 100 µM | [11] > 100 µM | [12] > 100 µM | [13] > 100 µM | [14] > 100 µM | [15] > 100 µM | [16] > 100 µM

C=CO/N=[N+](\[O-])N(CC)CC
inactive: [1] > 100 µM | [2] > 100 µM | [3] > 100 µM | [4] > 100 µM | [5] > 100 µM | [6] > 100 µM | [7] > 100 µM | [8] > 100 µM | [9] > 100 µM | [10] > 100 µM | [12] > 100 µM | [17] > 100 µM | [13] > 100 µM | [14] > 100 µM | [15] > 100 µM | [16] > 100 µM

Cc1n[nH]c(=O)n1C1CCCC1
inactive: [1] > 100 µM | [2] > 100 µM | [3] > 100 µM | [4] > 100 µM | [5] > 100 µM | [6] > 100 µM | [7] > 100 µM | [8] > 100 µM | [9] > 100 µM | [10] > 100 µM | [12] > 100 µM | [17] > 100 µM | [13] > 100 µM | [14] > 100 µM | [15] > 100 µM | [16] > 100 µM

CCCCC1=C(C(=O)N2CCOCC2)C2(OCCO2)C1Cl (centres undefined)
inactive: [1] 20.6 µM | [2] 23.1 µM | [3] 44.5 µM | [4] 30.1 µM | [5] 32.4 µM | [6] 16.9 µM | [7] 64 µM | [8] 27.1 µM | [9] 40.8 µM | [10] 16.4 µM | [11] 19.8 µM | [12] 30.2 µM | [13] 46 µM | [14] 29.9 µM | [15] 35.8 µM | [16] 24.3 µM

O=c1c2cc(S(=O)(=O)Nc3ccccc3Cl)ccc2ncn1NS(=O)(=O)c1ccc(Br)cc1
inactive: [1] > 37.5 µM | [2] > 37.5 µM | [3] > 37.5 µM | [4] > 37.5 µM | [5] > 37.5 µM | [6] > 37.5 µM | [7] > 37.5 µM | [8] > 37.5 µM | [9] > 37.5 µM | [10] > 37.5 µM | [11] > 37.5 µM | [12] > 37.5 µM | [17] > 37.5 µM | [14] > 37.5 µM | [15] > 37.5 µM | [16] > 37.5 µM

CC1(C)C2CCC1(C)C(N/C(=C(/C(Cl)=C(Cl)Cl)[N+](=O)[O-])n1nnc3ccccc31)C2 (centres undefined)
inactive: [1] 33.7 µM | [2] 18.5 µM | [4] 17.3 µM | [6] 37.7 µM | [7] 22.5 µM | [9] 17.6 µM | [10] 33.8 µM | [11] 22.9 µM | [12] 28 µM | [13] 32.7 µM | [15] 19.2 µM | [16] 38.6 µM

CN1Cc2ccccc2/C=C\c2ccccc21
inactive: [1] 50.1 µM | [2] 44.5 µM | [3] > 100 µM | [4] 44.8 µM | [5] > 100 µM | [6] 46.8 µM | [7] 96.2 µM | [8] 37.5 µM | [9] 39.4 µM | [10] > 100 µM | [11] 25.4 µM | [12] 65.6 µM | [13] 50.5 µM | [14] 70.5 µM | [15] > 100 µM | [16] > 100 µM

CN1C(=O)CC2CCC(=O)N2c2cccnc21 (centres undefined)
inactive: [1] > 100 µM | [2] > 100 µM | [3] > 100 µM | [4] > 100 µM | [5] > 100 µM | [6] > 100 µM | [7] > 100 µM | [8] > 100 µM | [9] > 100 µM | [10] > 100 µM | [11] > 100 µM | [17] > 100 µM | [13] > 100 µM | [14] > 100 µM | [15] > 100 µM | [16] > 100 µM
